Values of other authors in article PMC10323144, “Garbage in, garbage out: how reliable training data improved a virtual screening approach against SARS-CoV-2 MPro” (Frontiers in Pharmacology, 2023).
Square brackets hold non-standard residues; d marks the D form. Peptide text beside a SMILES is read from it. * marks the point of attachment. Cbz = O=C(OCc1ccccc1)*; Nva = CCC[CH](N)C(=O)O

System: MPro
Conditions: compiled from peer-reviewed sources (287 compounds) ref the 18 original articles; cited from earlier work

Compound: N#Cc1ccccc1-c1cc(-c2cc(Cl)cc(OCc3ccccc3)c2)c(=O)n(-c2cccnc2)c1 [compound 7]
- Class (MPro activity class): 1 (Compounds with IC50 < 10 µM or with a percentage of enzyme inhibition >50% at 10 µM were labelled as ACTIVE)

Compound: CC(C)C[C@H](NC(=O)[C@H](Cc1ccccc1)NC(=O)c1cnccn1)B(O)O [bortezomib]
- Class (MPro activity class): 0 (compounds with IC50 > 20 μM, percentage inhibition <80% at 20 µM or 50 μM, or percentage enzyme inhibition <50% at 10 µM were labelled as INACTIVE)

Compound: CC[C@@H]([C@H](C)O)n1ncn(-c2ccc(N3CCN(c4ccc(OC[C@@H]5CO[C@@](Cn6cncn6)(c6ccc(F)cc6F)C5)cc4)CC3)cc2)c1=O [Posaconazole]
- Class (MPro activity class): 0 (compounds with IC50 > 20 μM, percentage inhibition <80% at 20 µM or 50 μM, or percentage enzyme inhibition <50% at 10 µM were labelled as INACTIVE)

Compound: CCC(C)n1ncn(-c2ccc(N3CCN(c4ccc(OCC5COC(Cn6cncn6)(c6ccc(Cl)cc6Cl)O5)cc4)CC3)cc2)c1=O (stereo not drawn) [Itraconazole]
- Class (MPro activity class): 0 (compounds with IC50 > 20 μM, percentage inhibition <80% at 20 µM or 50 μM, or percentage enzyme inhibition <50% at 10 µM were labelled as INACTIVE)

Compound: Cc1cc(C#N)cc(C)c1Oc1nc(Nc2ccc(C#N)cc2)nc(N)c1Br [Etravirine]
- Class (MPro activity class): 0 (compounds with IC50 > 20 μM, percentage inhibition <80% at 20 µM or 50 μM, or percentage enzyme inhibition <50% at 10 µM were labelled as INACTIVE)

Compound: CC(C)CCC(=O)CC1c2ccccc2C(=O)N1c1ccc2ccc(Cl)nc2n1 (stereo not drawn) [PAGOCLONE]
- Class (MPro activity class): 0 (compounds with IC50 > 20 μM, percentage inhibition <80% at 20 µM or 50 μM, or percentage enzyme inhibition <50% at 10 µM were labelled as INACTIVE)

Compound: COC(=O)N[C@H](C(=O)N1CCC[C@H]1c1nc2cc([C@H]3CC[C@H](c4cc5nc([C@@H]6CCCN6C(=O)[C@@H](NC(=O)OC)[C@@H](C)OC)[nH]c5cc4F)N3c3cc(F)c(N4CCC(c5ccc(F)cc5)CC4)c(F)c3)c(F)cc2[nH]1)[C@@H](C)OC [Pibrentasvir]
- Class (MPro activity class): 0 (compounds with IC50 > 20 μM, percentage inhibition <80% at 20 µM or 50 μM, or percentage enzyme inhibition <50% at 10 µM were labelled as INACTIVE)

Compound: CO[C@@H]1[C@H](OC(=O)/C=C/C=C/C=C/C=C/C(=O)O)CC[C@]2(CO2)[C@H]1[C@@]1(C)O[C@@H]1CC=C(C)C [Fumagillin]
- Class (MPro activity class): 0 (compounds with IC50 > 20 μM, percentage inhibition <80% at 20 µM or 50 μM, or percentage enzyme inhibition <50% at 10 µM were labelled as INACTIVE)

Compound: O=c1c(O)c(-c2ccc(O)cc2)oc2c(O)c(O)cc(O)c12 [Herbacetin]
- Class (MPro activity class): 0 (compounds with IC50 > 20 μM, percentage inhibition <80% at 20 µM or 50 μM, or percentage enzyme inhibition <50% at 10 µM were labelled as INACTIVE)

Compound: O=c1[nH]cc(-c2cc(-c3cc(Cl)cc(OCc4ccccc4F)c3)c(=O)n(-c3cccnc3)c2)c(=O)[nH]1 [compound 18]
- Class (MPro activity class): 1 (Compounds with IC50 < 10 µM or with a percentage of enzyme inhibition >50% at 10 µM were labelled as ACTIVE)

Compound: Cn1c(=O)cc(N2CCC[C@@H](N)C2)n(Cc2ccccc2C#N)c1=O [Alogliptin]
- Class (MPro activity class): 0 (compounds with IC50 > 20 μM, percentage inhibition <80% at 20 µM or 50 μM, or percentage enzyme inhibition <50% at 10 µM were labelled as INACTIVE)

Compound: Cc1cc(C)c(C)c(S(=O)(=O)N2CCN(C(=O)c3cc(=O)[nH]c4ccccc34)CC2)c1C [MAT-POS-916a2c5a-3]
- Class (MPro activity class): 1 (Compounds with IC50 < 10 µM or with a percentage of enzyme inhibition >50% at 10 µM were labelled as ACTIVE)

Compound: O=c1cc(-c2ccccc2)oc2cc(O)c(O)cc12 [6,7-Dihydroxyflavone]
- Class (MPro activity class): 0 (compounds with IC50 > 20 μM, percentage inhibition <80% at 20 µM or 50 μM, or percentage enzyme inhibition <50% at 10 µM were labelled as INACTIVE)

Compound: O=C1c2ccccc2NC(c2cc(Br)ccc2O)N1N=Cc1cc(Br)ccc1O (stereo not drawn) [QZ1]
- Class (MPro activity class): 0 (compounds with IC50 > 20 μM, percentage inhibition <80% at 20 µM or 50 μM, or percentage enzyme inhibition <50% at 10 µM were labelled as INACTIVE)

Compound: CCCC(C=O)NC(=O)C(CC(C)C)NC(=O)C(CC(C)C)NC(=O)OCc1ccccc1 (stereo not drawn) [MG-115] (Cbz-Leu-Leu-[Nva]-aldehyde; configuration not given here)
- Class (MPro activity class): 1 (Compounds with IC50 < 10 µM or with a percentage of enzyme inhibition >50% at 10 µM were labelled as ACTIVE)

Compound: CC(NC(=O)C(O)c1cc(F)cc(F)c1)C(=O)NC1C(=O)N(C)c2ccccc2-c2ccccc21 (stereo not drawn) [LY411575]
- Class (MPro activity class): 0 (compounds with IC50 > 20 μM, percentage inhibition <80% at 20 µM or 50 μM, or percentage enzyme inhibition <50% at 10 µM were labelled as INACTIVE)

Compound: N[C@@H](CC(=O)N1CCn2c(nnc2C(F)(F)F)C1)Cc1cc(F)c(F)cc1F [Sitagliptin]
- Class (MPro activity class): 0 (compounds with IC50 > 20 μM, percentage inhibition <80% at 20 µM or 50 μM, or percentage enzyme inhibition <50% at 10 µM were labelled as INACTIVE)

Compound: Cc1cccc(COc2cc(Cl)cc(-c3cc(-c4c[nH]c(=O)[nH]c4=O)cn(-c4cccnc4)c3=O)c2)c1 [compound 17]
- Class (MPro activity class): 1 (Compounds with IC50 < 10 µM or with a percentage of enzyme inhibition >50% at 10 µM were labelled as ACTIVE)

Compound: O=C(CCl)Nc1nc2c(S(=O)(=O)NCCc3ccccc3)cccc2s1 [DUN-NEW-f8ce3686-23]
- Class (MPro activity class): 1 (Compounds with IC50 < 10 µM or with a percentage of enzyme inhibition >50% at 10 µM were labelled as ACTIVE)

Compound: O=C(Oc1cncc(Cl)c1)c1cccc2[nH]ccc12 [10_GRL0496]
- Class (MPro activity class): 1 (Compounds with IC50 < 10 µM or with a percentage of enzyme inhibition >50% at 10 µM were labelled as ACTIVE)

Compound: CC(=O)c1cc([N+](=O)[O-])c(Sc2cccc(Cl)c2Cl)s1 [P005091]
- Class (MPro activity class): 0 (compounds with IC50 > 20 μM, percentage inhibition <80% at 20 µM or 50 μM, or percentage enzyme inhibition <50% at 10 µM were labelled as INACTIVE)

Compound: COCc1cc(Cl)cc(CN2CCN(C(=O)CCl)CC2)c1 [MED-COV-4280ac29-33]
- Class (MPro activity class): 1 (Compounds with IC50 < 10 µM or with a percentage of enzyme inhibition >50% at 10 µM were labelled as ACTIVE)

Compound: COc1cc([C@H]2OC[C@H]3[C@@H]2CO[C@H]3c2ccc(OC)c(OC)c2)ccc1O [Phillygenin]
- Class (MPro activity class): 0 (compounds with IC50 > 20 μM, percentage inhibition <80% at 20 µM or 50 μM, or percentage enzyme inhibition <50% at 10 µM were labelled as INACTIVE)

Compound: Cc1cc2nc3c(=O)[nH]c(=O)nc-3n(C[C@H](O)[C@H](O)[C@H](O)CO)c2cc1C [RIBOFLAVIN]
- Class (MPro activity class): 0 (compounds with IC50 > 20 μM, percentage inhibition <80% at 20 µM or 50 μM, or percentage enzyme inhibition <50% at 10 µM were labelled as INACTIVE)

Compound: COc1ccc(CN=c2[nH]c(N3CCC[C@H]3CO)ncc2C(=O)NCc2ncccn2)cc1Cl
- Class (MPro activity class): 0 (compounds with IC50 > 20 μM, percentage inhibition <80% at 20 µM or 50 μM, or percentage enzyme inhibition <50% at 10 µM were labelled as INACTIVE)

Compound: N#Cc1ccccc1-c1cc(-c2ccccn2)cn(-c2ccccc2)c1=O [1 (perampanel), perampanel]
- Class (MPro activity class): 0 (compounds with IC50 > 20 μM, percentage inhibition <80% at 20 µM or 50 μM, or percentage enzyme inhibition <50% at 10 µM were labelled as INACTIVE)

Compound: CC(C)c1nc(CN(C)C(=O)N[C@H](C(=O)N[C@@H](Cc2ccccc2)C[C@H](O)[C@H](Cc2ccccc2)NC(=O)OCc2cncs2)C(C)C)cs1 [Ritonavir]
- Class (MPro activity class): 0 (compounds with IC50 > 20 μM, percentage inhibition <80% at 20 µM or 50 μM, or percentage enzyme inhibition <50% at 10 µM were labelled as INACTIVE)

Compound: CCOC(=O)c1c(CSc2ccccc2)n(C)c2cc(Br)c(O)c(CN(C)C)c12 [Umifenovir]
- Class (MPro activity class): 0 (compounds with IC50 > 20 μM, percentage inhibition <80% at 20 µM or 50 μM, or percentage enzyme inhibition <50% at 10 µM were labelled as INACTIVE)

Compound: C[C@H](Cn1cnc2c(N)ncnc21)OCP(=O)(O)O [Tenofovir]
- Class (MPro activity class): 0 (compounds with IC50 > 20 μM, percentage inhibition <80% at 20 µM or 50 μM, or percentage enzyme inhibition <50% at 10 µM were labelled as INACTIVE)

Compound: COc1c(O)cc(O)c2c(=O)cc(-c3ccccc3)oc12 [Wogonin]
- Class (MPro activity class): 0 (compounds with IC50 > 20 μM, percentage inhibition <80% at 20 µM or 50 μM, or percentage enzyme inhibition <50% at 10 µM were labelled as INACTIVE)

Compound: CC(C)(C)OC(=O)N[C@H]1CCCCC/C=C\[C@@H]2C[C@@]2(C(=O)NS(=O)(=O)C2CC2)NC(=O)[C@@H]2C[C@@H](OC(=O)N3Cc4cccc(F)c4C3)CN2C1=O [Danoprevir]
- Class (MPro activity class): 0 (compounds with IC50 > 20 μM, percentage inhibition <80% at 20 µM or 50 μM, or percentage enzyme inhibition <50% at 10 µM were labelled as INACTIVE)

Compound: O=C(C=Cc1ccc(O)c(O)c1)OC1CC(O)(C(=O)O)CC(O)C1OC(=O)C=Cc1ccc(O)c(O)c1 (stereo not drawn) [Isochlorogenic acid B]
- Class (MPro activity class): 0 (compounds with IC50 > 20 μM, percentage inhibition <80% at 20 µM or 50 μM, or percentage enzyme inhibition <50% at 10 µM were labelled as INACTIVE)

Compound: N#Cc1ccccc1-c1cc(-c2cc(Cl)cc(Cl)c2)c(=O)n(-c2cccnc2)c1 [compound 4]
- Class (MPro activity class): 1 (Compounds with IC50 < 10 µM or with a percentage of enzyme inhibition >50% at 10 µM were labelled as ACTIVE)

Compound: CS(=O)(=O)c1ncc(Cl)c(C(=O)Nc2ccccc2Cc2ccccc2)n1 [LON-WEI-ff7b210a-4]
- Class (MPro activity class): 1 (Compounds with IC50 < 10 µM or with a percentage of enzyme inhibition >50% at 10 µM were labelled as ACTIVE)

Compound: O=C(Cc1cccc(Cl)c1)Nn1cnc2ccccc21 [JAN-GHE-5a013bed-2]
- Class (MPro activity class): 1 (Compounds with IC50 < 10 µM or with a percentage of enzyme inhibition >50% at 10 µM were labelled as ACTIVE)

Compound: CC(C)CC1CN(C(=O)CCl)CCN1Cc1cccc(Cl)c1 (stereo not drawn) [DAN-LON-a5fc619e-3]
- Class (MPro activity class): 1 (Compounds with IC50 < 10 µM or with a percentage of enzyme inhibition >50% at 10 µM were labelled as ACTIVE)

Compound: Cc1ccncc1NC(=O)Cc1cc(Cl)cc(OC2CC(=O)N2)c1 (stereo not drawn) [TRY-UNI-2eddb1ff-7]
- Class (MPro activity class): 1 (Compounds with IC50 < 10 µM or with a percentage of enzyme inhibition >50% at 10 µM were labelled as ACTIVE)

Compound: C=C[C@H]1[C@H](O[C@@H]2O[C@H](CO)[C@@H](O)[C@H](O)[C@H]2O)OC=C(C(=O)OC)[C@H]1CC(=O)O [Secoxyloganin]
- Class (MPro activity class): 0 (compounds with IC50 > 20 μM, percentage inhibition <80% at 20 µM or 50 μM, or percentage enzyme inhibition <50% at 10 µM were labelled as INACTIVE)

Compound: COc1ccc(C2CC(c3cccs3)=NN2C(=O)CCl)cc1OC (stereo not drawn) [MAT-POS-916a2c5a-1]
- Class (MPro activity class): 1 (Compounds with IC50 < 10 µM or with a percentage of enzyme inhibition >50% at 10 µM were labelled as ACTIVE)
